Here are results for 1 molecule from EPA's ToxValDB 9.5 (doi:10.2903/j.efsa.2009.310r).

Values after ≈ are worked out from the molar mass of the structure shown. Values joined by “and” are separate entries in the source; they are usually repeats but may differ in a detail not shown here. Equal values may be shown once. Bounds are passed on as bounds.

Data set [1] deals with Anas platyrhynchos. The data set is described as follows: LC10; higher = less toxic. The settings on record: short-term; duration: 14 days; oral; feed; mortality.
A further data set deals with Coturnix coturnix. The settings on record: acute, oral, mortality.
In another data set the test system is Rattus norvegicus. The conditions noted are these: mortality.
The subject of another data set is Ceriodaphnia dubia. The conditions noted are these: chronic/long-term; duration: 7 days; reproduction.
In another data set the test system is Folsomia candida. The settings on record: chronic/long-term; duration: 28 days.
For another data set, the system named is Lepomis macrochirus. The conditions noted are these: acute; duration: 96 hours; mortality.
In a further data set the test system is Colinus virginianus. The conditions noted are these: acute, oral, mortality; for LC50: diet.
Data set [2] concerns Anas platyrhynchos. The conditions noted are these: oral, mortality; for LD50: acute, unspecified; for LC50: short-term, feed.
The next data set has as its system Phasianus sp. The conditions noted are these: acute, oral, unspecified, mortality.
Another data set concerns Apis mellifera. The settings on record: acute; dermal; mortality.
For a further data set, the system named is Bibionidae. The settings on record: chronic/long-term; duration: 28 days.
Another data set deals with Hypoaspis aculeifer. The conditions noted are these: chronic/long-term; duration: 28 days.

`CNC(=O)Oc1cccc2c1OC(C)(C)C2` [Carbofuran] had an LC10 in the data set on Anas platyrhynchos [1] of 0.64 mg/kg-day. Also, the LD50 with Coturnix coturnix (F) was 3.5 mg/kg-day; with Coturnix coturnix (M), 4.9 mg/kg-day; in the data set with Rattus norvegicus (acute, oral), < 5.6 mg/kg-day; in the data set with Colinus virginianus (M/F) it was 8 mg/kg-day; in the data set on Anas platyrhynchos [2] (F), 0.86 mg/kg-day; in the data set on Anas platyrhynchos [2], 0.76 mg/kg-day. Also, the LD50 in the data set with Phasianus sp. (F) was 6.2 mg/kg-day; in the data set with Phasianus sp. (M), 4 mg/kg-day; in the data set on Apis mellifera it was 0.0357 µg/piece. In the data set on Rattus norvegicus (chronic), the NOAEL was 0.1 mg/kg-day. Further, the NOEC was 0.00016 mg/L in the data set with Ceriodaphnia dubia; 0.21 mg/kg with Folsomia candida; < 0.84 mg/kg in the data set with Tagia sp. (chronic/long-term, duration: 56 days); 0.0032 mg/L in the data set on Bibionidae; 10.4 mg/kg with Hypoaspis aculeifer. The LC50 in the data set on Lepomis macrochirus is 0.18 µg/mL (≈ 0.814 µM); in the data set with Colinus virginianus (duration: 5 days), 114 mg/kg-day; with Colinus virginianus (duration: 7 days), 20.8 mg/kg-day; in the data set with Colinus virginianus (duration: 14 days) it was 15.8 mg/kg-day; in the data set with Anas platyrhynchos [2] (duration: 5 days), 10 mg/kg-day and 17 mg/kg-day; in the data set with Anas platyrhynchos [2] (duration: 14 days) it was 1.6 mg/kg-day. Moreover, the LC50 with Tagia sp. (acute, duration: 14 days, mortality) was > 50 mg/kg.
